Measured values reported in publication PMC8145704, “Conformational Plasticity of Hepatitis B Core Protein Spikes Promotes Peptide Binding Independent of the Secretion Phenotype” (Microorganisms, 2021).
“Also recorded” adds a separate entry of the source. Where two headings read alike, the source gives them in different places. Ends that are not written are not given here.

Key:
[1] = biological target: T1, WT-HBc capsids (hepatitis B core protein) (Hepatitis B virus genotype D subtype ayw, UniProt P03146); type: binding, Hepatitis B virus (genotype D; strain ayw); details: for KD: N-terminally unmodified, terminally amidated peptides, dnb = did not bind HBc, SLLGRM fitted with stoichiometry fixed to 0.25
T1 construct: these predictions are also valid for full-length variants with randomly packaged host–RNA; made in house; host or cells: E. coli BL21 (DE3) Star

[2] = for solubility (soluble up to): no buffer stated at this place, peptides were dissolved in ITC dialysis buffer, pH 7.5
F97L-HBc capsids = F97L-HBc capsids (Hepatitis B virus genotype D subtype ayw, UniProt P03146, F97L); assay: Isothermal titration calorimetry (ITC) of peptide binding to F97L-HBc capsids; design: species or system Hepatitis B virus (genotype D; strain ayw); details: 20 °C, ITC buffer 2, mean ± SD of 5 repeats
P5T-HBc capsids = P5T-HBc capsids (Hepatitis B virus genotype D subtype ayw, UniProt P03146, P5T); assay: Isothermal titration calorimetry (ITC) of peptide binding to P5T-HBc capsids; design: species or system Hepatitis B virus (genotype D; strain ayw); details: 20 °C, ITC buffer 2, mean ± SD of 6 repeats
L60V-HBc capsids = L60V-HBc capsids (Hepatitis B virus genotype D subtype ayw, UniProt P03146, L60V); assay: Isothermal titration calorimetry (ITC) of peptide binding to L60V-HBc capsids; design: species or system Hepatitis B virus (genotype D; strain ayw); details: 20 °C, ITC buffer 2, stoichiometry fixed to 0.5, mean ± SD of 3 repeats
WT-HBc capsids = details: GRMKG added at 10-fold molar excess; SLLGRM sample taken at the end of the ITC experiment (more than 95% of binding sites occupied)
[3] = ITC, 37 °C, ITC buffer 1, single repeat, ± fit error
[4] = ITC, 20 °C, ITC buffer 2, mean ± SD of 6 repeats
[5] = ITC, 20 °C, ITC buffer 2, single repeat, ± fit error

CSCC[C@H](NC(=O)[C@H](CCCNC(=N)N)NC(=O)CNC(=O)[C@H](CC(C)C)NC(=O)[C@H](CC(C)C)NC(=O)[C@H](CO)NC(=O)[C@H](CCCNC(=N)N)NC(=O)[C@H](Cc1c[nH]cn1)NC(=O)[C@@H](N)CCSC)C(=O)N[C@@H](CCCCN)C(=O)NCC(=O)N[C@@H](C)C(N)=O [P1]
∆ST ([1]; ITC, 37 °C, ITC buffer 1, single repeat): -2.5 kcal/mol
Ratio Peptide/HBc [1, 3]: 0.45 ± 0.02
∆H [1, 3]: -9.0 ± 0.6 kcal/mol
aggregation of HBc capsids caused by the peptide ([1]; in words, endothermic contribution at higher P1 concentrations in ITC (37 °C, ITC buffer 1) attributed to aggregation): aggregation of P1 and capsids; also recorded: causes aggregation of HBc capsids
solubility (soluble up to) [2]: up to 8 mM

CSCC[C@H](NC(=O)[C@H](CCCNC(=N)N)NC(=O)CNC(=O)[C@H](CC(C)C)NC(=O)[C@H](CC(C)C)NC(=O)[C@H](CO)NC(=O)CN)C(=O)N[C@@H](CCCCN)C(=O)NCC(=O)N[C@@H](C)C(N)=O [P2]
∆H (F97L-HBc capsids): -9.9 ± 1.0 kcal/mol
∆ST (F97L-HBc capsids): -4.7 ± 0.9 kcal/mol
∆H (P5T-HBc capsids): -7.7 ± 0.8 kcal/mol
∆ST (P5T-HBc capsids): -2.1 ± 0.9 kcal/mol
∆H (L60V-HBc capsids): -6.6 ± 1.2 kcal/mol
∆ST (L60V-HBc capsids): -1.4 ± 1.3 kcal/mol
∆H [1, 4]: -14.4 ± 1.6 kcal/mol
∆ST [1, 4]: -8.8 ± 1.6 kcal/mol
solubility compared with the other peptide, in words ([2]; P2 compared with the longer P1): better soluble
solubility (soluble up to) [2]: up to 8 mM

GRMKG
KD [1, 5]: no measurable affinity and dnb
association of peptide with capsids in the cryo-EM map (WT-HBc capsids): no association

SLKGRM
KD [1, 5]: no binding detected and dnb

SLLGEM
KD [1, 5]: no binding detected and dnb

SLLGRM-NH2 [SLLGRM]
∆ST ([1]; ITC, 20 °C, ITC buffer 2, stoichiometry fixed to 0.25, single repeat): -3.2 kcal/mol
∆H ([1]; ITC, 20 °C, ITC buffer 2, stoichiometry fixed to 0.25, single repeat, ± fit error): -8.3 ± 0.2 kcal/mol
association of peptide with capsids in the cryo-EM map (WT-HBc capsids): only the CD spikes bound
